Measurements published in US9738634B2, “Heterocyclic amide compound and herbicide” (SYNGENTA PARTICIPATIONS AG, priority 2013, dated 2017).

What was measured:
Type in all cases: in vivo
Conditions in all cases: treatment dosage 320 g/ha
Italian ryegrass [1] = experiment: Test Example 4: weedkilling efficacy by foliar treatment; I: Italian ryegrass
Summary of the method: (§1)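 Seeds are spot-sown into sterilized diluvial soil and covered with about 1.5 cm of soil. After 14 days' greenhouse growth at 25 to 30° C, plants are sprayed on stems and leaves with diluted emulsion at the stated g/ha rate, then scored at 3 weeks.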

barnyard grass [2] = experiment: Test Example 2: weedkilling efficacy, growth period weed treatment in the submerged state; A: barnyard grass
Summary of the method: (§2)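 Weeds treated at the 1-2 leaf stage by application of diluted emulsion onto floodwater (4 cm depth, alluvial soil) at specified g/ha. Grown in greenhouse at 25 to 30° C; herbicidal effect rated three weeks after treatment.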

chickweed [3] = experiment: Test Example 4: weedkilling efficacy by foliar treatment; N: chickweed
Summary of the method: as §1

corn [4] = experiment: Test Example 3: soil treatment, effect on crop; c: corn
Summary of the method: (§3)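 Crop and weed responses were judged three weeks after a uniform surface spray of the water-diluted emulsion at the given g/ha rate. Seeds sat beneath about 1.5 cm of sterilized diluvial soil, and boxes stood in a greenhouse at 25 to 30° C.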

rapeseed [5] = experiment: Test Example 3: soil treatment, effect on crop; g: rapeseed
Summary of the method: as §3

wild oat [6] = experiment: Test Example 4: weedkilling efficacy by foliar treatment; G: wild oat
Summary of the method: as §1

chickweed [7] = experiment: Test Example 3: weedkilling efficacy through soil treatment; N: chickweed
Summary of the method: as §3

bulrush [8] = experiment: Test Example 2: weedkilling efficacy, growth period weed treatment in the submerged state; B: bulrush
Summary of the method: as §2

soybean [9] = experiment: Test Example 3: soil treatment, effect on crop; d: soybean
Summary of the method: as §3

rapeseed [10] = experiment: Test Example 4: foliar treatment, effect on crop; g: rapeseed
Summary of the method: as §1

barnyard grass [11] = experiment: Test Example 1: weedkilling efficacy, preemergent weed treatment in the submerged state; A: barnyard grass
Summary of the method: (§4)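 Pre-emergence application onto floodwater (4 cm, alluvial soil) on the day of sowing, dose expressed as g/ha from diluted emulsion formulation. Weeds sown with 2.5-leaf transplanted rice as crop; plants held at 25–30 °C in greenhouse and scored against assessment criteria after 3 weeks.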

birds-eye speedwell [12] = experiment: Test Example 4: weedkilling efficacy by foliar treatment; p: birds-eye speedwell
Summary of the method: as §1

soybean [13] = experiment: Test Example 4: foliar treatment, effect on crop; d: soybean
Summary of the method: as §1

black-grass [14] = experiment: Test Example 3: weedkilling efficacy through soil treatment; H: black-grass
Summary of the method: as §3

fig-leafed goosefoot = experiment: Test Example 4: weedkilling efficacy by foliar treatment; M: fig-leafed goosefoot
Summary of the method: as §1

wheat [15] = experiment: Test Example 3: soil treatment, effect on crop; e: wheat
Summary of the method: as §3

oval-leafed pondweed [16] = experiment: Test Example 1: weedkilling efficacy, preemergent weed treatment in the submerged state; C: oval-leafed pondweed
Summary of the method: as §4

directly sown rice [17] = experiment: Test Example 4: foliar treatment, effect on crop; b: directly sown rice
Summary of the method: as §1

bulrush [18] = experiment: Test Example 1: weedkilling efficacy, preemergent weed treatment in the submerged state; B: bulrush
Summary of the method: as §4

redroot pigweed [19] = experiment: Test Example 4: weedkilling efficacy by foliar treatment; L: redroot pigweed
Summary of the method: as §1

Indian mallow [20] = experiment: Test Example 4: weedkilling efficacy by foliar treatment; K: Indian mallow
Summary of the method: as §1

Indian mallow [21] = experiment: Test Example 3: weedkilling efficacy through soil treatment; K: Indian mallow
Summary of the method: as §3

common wind-grass [22] = experiment: Test Example 3: weedkilling efficacy through soil treatment; J: common wind-grass
Summary of the method: as §3

crabgrass [23] = experiment: Test Example 4: weedkilling efficacy by foliar treatment; D: crabgrass
Summary of the method: as §1

crabgrass [24] = experiment: Test Example 3: weedkilling efficacy through soil treatment; D: crabgrass
Summary of the method: as §3

directly sown rice [25] = experiment: Test Example 3: soil treatment, effect on crop; b: directly sown rice
Summary of the method: as §3

wild oat [26] = experiment: Test Example 3: weedkilling efficacy through soil treatment; G: wild oat
Summary of the method: as §3

black-grass [27] = experiment: Test Example 4: weedkilling efficacy by foliar treatment; H: black-grass
Summary of the method: as §1

barnyard grass [28] = experiment: Test Example 3: weedkilling efficacy through soil treatment; F: barnyard grass
Summary of the method: as §3

redroot pigweed [29] = experiment: Test Example 3: weedkilling efficacy through soil treatment; L: redroot pigweed
Summary of the method: as §3

birds-eye speedwell [30] = experiment: Test Example 3: weedkilling efficacy through soil treatment; p: birds-eye speedwell
Summary of the method: as §3

beet [31] = experiment: Test Example 3: soil treatment, effect on crop; f: beet
Summary of the method: as §3

Italian ryegrass [32] = experiment: Test Example 3: weedkilling efficacy through soil treatment; I: Italian ryegrass
Summary of the method: as §3

barnyard grass [33] = experiment: Test Example 4: weedkilling efficacy by foliar treatment; F: barnyard grass
Summary of the method: as §1

catchweed [34] = experiment: Test Example 3: weedkilling efficacy through soil treatment; O: catchweed
Summary of the method: as §3

green foxtail [35] = experiment: Test Example 3: weedkilling efficacy through soil treatment; E: green foxtail
Summary of the method: as §3

wheat [36] = experiment: Test Example 4: foliar treatment, effect on crop; e: wheat
Summary of the method: as §1

catchweed [37] = experiment: Test Example 4: weedkilling efficacy by foliar treatment; O: catchweed
Summary of the method: as §1

green foxtail [38] = experiment: Test Example 4: weedkilling efficacy by foliar treatment; E: green foxtail
Summary of the method: as §1

oval-leafed pondweed [39] = experiment: Test Example 2: weedkilling efficacy, growth period weed treatment in the submerged state; C: oval-leafed pondweed
Summary of the method: as §2

beet [40] = experiment: Test Example 4: foliar treatment, effect on crop; f: beet
Summary of the method: as §1

corn [41] = experiment: Test Example 4: foliar treatment, effect on crop; c: corn
Summary of the method: as §1

common wind-grass [42] = experiment: Test Example 4: weedkilling efficacy by foliar treatment; J: common wind-grass
Summary of the method: as §1

transplanted rice = experiment: Test Example 1: preemergent weed treatment in the submerged state, effect on crop; a: transplanted rice
Summary of the method: as §4

CC1=C(c2ccccc2)C(=O)N(C(C)(C)C(=O)Nc2cc(OC(F)F)ccn2)CO1 [B-2-64]
I (Italian ryegrass) weedkilling efficacy grade (Italian ryegrass [1]): 5 (weed kill ratio 90% or more, (practically complete withering))
A (barnyard grass) weedkilling efficacy grade (barnyard grass [2]): 5 (weed kill ratio 90% or more, (practically complete withering))
N (chickweed) weedkilling efficacy grade (chickweed [3]): 4 (weed kill ratio 70% or more, less than 90%)
c (corn) effect on crop grade (corn [4]): 1 (weed kill ratio 5% or more, less than 20%)
g (rapeseed) effect on crop grade (rapeseed [5]): 3 (weed kill ratio 40% or more, less than 70%)
G (wild oat) weedkilling efficacy grade (wild oat [6]): 4 (weed kill ratio 70% or more, less than 90%)
N (chickweed) weedkilling efficacy grade (chickweed [7]): 4 (weed kill ratio 70% or more, less than 90%)
B (bulrush) weedkilling efficacy grade (bulrush [8]): 5 (weed kill ratio 90% or more, (practically complete withering))
d (soybean) effect on crop grade (soybean [9]): 0 (weed kill ratio 5% or less (practically no effect))
g (rapeseed) effect on crop grade (rapeseed [10]): 4 (weed kill ratio 70% or more, less than 90%)
A (barnyard grass) weedkilling efficacy grade (barnyard grass [11]): 5 (weed kill ratio 90% or more, (practically complete withering))
P (birds-eye speedwell) weedkilling efficacy grade (birds-eye speedwell [12]): 4 (weed kill ratio 70% or more, less than 90%)
d (soybean) effect on crop grade (soybean [13]): 4 (weed kill ratio 70% or more, less than 90%)
H (black-grass) weedkilling efficacy grade (black-grass [14]): 5 (weed kill ratio 90% or more, (practically complete withering))
M (fig-leafed goosefoot) weedkilling efficacy grade (fig-leafed goosefoot): 4 (weed kill ratio 70% or more, less than 90%)
e (wheat) effect on crop grade (wheat [15]): 0 (weed kill ratio 5% or less (practically no effect))
C (oval-leafed pondweed) weedkilling efficacy grade (oval-leafed pondweed [16]): 5 (weed kill ratio 90% or more, (practically complete withering))
b (directly sown rice) effect on crop grade (directly sown rice [17]): 4 (weed kill ratio 70% or more, less than 90%)
B (bulrush) weedkilling efficacy grade (bulrush [18]): 5 (weed kill ratio 90% or more, (practically complete withering))
L (redroot pigweed) weedkilling efficacy grade (redroot pigweed [19]): 4 (weed kill ratio 70% or more, less than 90%)
K (Indian mallow) weedkilling efficacy grade (Indian mallow [20]): 4 (weed kill ratio 70% or more, less than 90%)
K (Indian mallow) weedkilling efficacy grade (Indian mallow [21]): 3 (weed kill ratio 40% or more, less than 70%)
J (common wind-grass) weedkilling efficacy grade (common wind-grass [22]): 5 (weed kill ratio 90% or more, (practically complete withering))
D (crabgrass) weedkilling efficacy grade (crabgrass [23]): 5 (weed kill ratio 90% or more, (practically complete withering))
D (crabgrass) weedkilling efficacy grade (crabgrass [24]): 5 (weed kill ratio 90% or more, (practically complete withering))
b (directly sown rice) effect on crop grade (directly sown rice [25]): 4 (weed kill ratio 70% or more, less than 90%)
G (wild oat) weedkilling efficacy grade (wild oat [26]): 3 (weed kill ratio 40% or more, less than 70%)
H (black-grass) weedkilling efficacy grade (black-grass [27]): 5 (weed kill ratio 90% or more, (practically complete withering))
F (barnyard grass) weedkilling efficacy grade (barnyard grass [28]): 5 (weed kill ratio 90% or more, (practically complete withering))
L (redroot pigweed) weedkilling efficacy grade (redroot pigweed [29]): 4 (weed kill ratio 70% or more, less than 90%)
P (birds-eye speedwell) weedkilling efficacy grade (birds-eye speedwell [30]): 5 (weed kill ratio 90% or more, (practically complete withering))
f (beet) effect on crop grade (beet [31]): 4 (weed kill ratio 70% or more, less than 90%)
I (Italian ryegrass) weedkilling efficacy grade (Italian ryegrass [32]): 5 (weed kill ratio 90% or more, (practically complete withering))
F (barnyard grass) weedkilling efficacy grade (barnyard grass [33]): 5 (weed kill ratio 90% or more, (practically complete withering))
O (catchweed) weedkilling efficacy grade (catchweed [34]): 0 (weed kill ratio 5% or less (practically no effect))
E (green foxtail) weedkilling efficacy grade (green foxtail [35]): 5 (weed kill ratio 90% or more, (practically complete withering))
e (wheat) effect on crop grade (wheat [36]): 0 (weed kill ratio 5% or less (practically no effect))
O (catchweed) weedkilling efficacy grade (catchweed [37]): 4 (weed kill ratio 70% or more, less than 90%)
E (green foxtail) weedkilling efficacy grade (green foxtail [38]): 5 (weed kill ratio 90% or more, (practically complete withering))
C (oval-leafed pondweed) weedkilling efficacy grade (oval-leafed pondweed [39]): 5 (weed kill ratio 90% or more, (practically complete withering))
f (beet) effect on crop grade (beet [40]): 4 (weed kill ratio 70% or more, less than 90%)
c (corn) effect on crop grade (corn [41]): 0 (weed kill ratio 5% or less (practically no effect))
J (common wind-grass) weedkilling efficacy grade (common wind-grass [42]): 5 (weed kill ratio 90% or more, (practically complete withering))
a (transplanted rice) effect on crop grade (transplanted rice): 4 (weed kill ratio 70% or more, less than 90%)
